Assay: pKa, dissociation state and displayed color of the azo dyes
Format: physicochemical
Conditions: proton dissociated
Experimental: Thus, in the hair dye composition of the present invention having pH (25° C.) of 7.5 to 12, almost 80% or more of these azo dyes are present in an anionic state where a proton(s) is dissociated.

With CSc1nsc(/N=N/c2ccc(O)c(Cl)c2)n1 [Example A-1] as the molecule, how does the “color displayed when a proton(s) dissociates” value (“color displayed” for short) read?
Its value is “red”.

For NS(=O)(=O)c1ccc2nsc(/N=N/c3ccc(O)c(Cl)c3)c2c1 [Example A-2], which “color displayed” value is on record?
The value was “blue”.

For Cn1nccc1/N=N/c1ccc(O)c(Cl)c1 [Example A-3], which “color displayed” value is on record?
The value was “yellow”.
